Laboratory results from ChEMBL document CHEMBL5380843 (J Med Chem, 2023).

Legend:
[1] = Acute toxicity in 12 hr fasted male CD-1 (ICR) mouse assessed as death at 2 g/Kg, IG measured after 14 days; details: in vivo, po, 2000 mg/kg, 336 h, time 14 day
[2] = Acute toxicity in 12 hr fasted female CD-1(ICR) mouse assessed as behavioral abnormalities at 2 g/Kg, IG measured after 14 days; details: in vivo, po, 2000 mg/kg, 336 h, time 14 day
[3] = test system: Human immunodeficiency virus 1; assay: Antiviral activity against wild type HIV-1 IIIB harboring reverse transcriptase Y181C mutant infected in human MT4 cells assessed as protection against virus-induced cytopathic effect incubated for 5 days by MTT assay; type: functional, organism-based; details: Human immunodeficiency virus 1, IIIB, MT4, 120 h
Cytochrome P450 2D6 = Cytochrome P450 2D6 (Homo sapiens, UniProt P10635); assay: Inhibition of CYP2D6 in human liver microsomes using dextromethorphan as substrate incubated for 15 to 45 mins in presence of NADPH; type: ADME, Microsome
Chain of Cytochrome P450 2D6 (P10635 whole entry): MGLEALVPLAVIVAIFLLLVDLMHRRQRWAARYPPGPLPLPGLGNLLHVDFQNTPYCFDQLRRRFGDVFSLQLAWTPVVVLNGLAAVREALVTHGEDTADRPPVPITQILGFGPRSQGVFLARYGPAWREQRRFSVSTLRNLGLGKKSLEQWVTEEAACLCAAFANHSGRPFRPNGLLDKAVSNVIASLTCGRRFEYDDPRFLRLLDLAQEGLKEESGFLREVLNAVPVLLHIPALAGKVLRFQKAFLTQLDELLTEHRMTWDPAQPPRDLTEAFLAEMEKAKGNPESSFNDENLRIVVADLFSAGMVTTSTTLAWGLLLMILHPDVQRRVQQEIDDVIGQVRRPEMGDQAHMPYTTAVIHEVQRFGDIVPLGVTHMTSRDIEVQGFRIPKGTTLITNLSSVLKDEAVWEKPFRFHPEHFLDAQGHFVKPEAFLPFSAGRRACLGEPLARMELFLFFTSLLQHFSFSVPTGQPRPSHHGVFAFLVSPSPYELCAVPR

Cytochrome P450 3A4 [4] = target: T1, Cytochrome P450 3A4 (Homo sapiens, UniProt P08684); assay: Inhibition of CYP3A4 in human liver microsomes using midazolam as substrate incubated for 15 to 45 mins in presence of NADPH; type: ADME, Microsome
T1 sequence (P08684 whole entry): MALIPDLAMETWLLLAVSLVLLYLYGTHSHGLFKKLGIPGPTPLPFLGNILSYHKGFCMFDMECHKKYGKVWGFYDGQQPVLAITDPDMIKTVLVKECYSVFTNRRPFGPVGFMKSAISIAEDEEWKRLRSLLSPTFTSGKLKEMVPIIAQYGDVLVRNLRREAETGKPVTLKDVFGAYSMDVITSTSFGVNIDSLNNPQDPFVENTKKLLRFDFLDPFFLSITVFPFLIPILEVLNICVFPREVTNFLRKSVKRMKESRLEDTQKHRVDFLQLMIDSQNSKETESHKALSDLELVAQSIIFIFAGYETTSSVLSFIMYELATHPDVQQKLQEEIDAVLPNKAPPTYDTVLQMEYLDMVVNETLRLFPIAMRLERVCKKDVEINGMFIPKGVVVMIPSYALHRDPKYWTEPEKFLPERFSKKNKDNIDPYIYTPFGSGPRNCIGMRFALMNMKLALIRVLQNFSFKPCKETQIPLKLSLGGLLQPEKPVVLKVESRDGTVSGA

[5] = Resistant factor, ratio of EC50 for antiviral activity against HIV-1 IIIB harboring reverse transcriptase […] mutant to EC50 for antiviral activity against wild type HIV-1 IIIB; type: functional
[6] = Resistant factor, ratio of EC50 for antiviral activity against HIV-1 IIIB harboring reverse transcriptase Y188L mutant to EC50 for antiviral activity against wild type HIV-1 IIIB; type: functional
[7] = Cmax in Sprague-Dawley rat at 10 mg/kg, po measured upto 24 hrs by LC-MS/MS analysis; type: ADME, organism-based; parameters: time < 24 hrs, dose 10 mg/kg, route po; details: in vivo
[8] = Tmax in Sprague-Dawley rat at 1 mg/kg, iv measured upto 24 hrs by LC-MS/MS analysis; type: ADME, organism-based; details: in vivo
[9] = AUC (0 to t) in Sprague-Dawley rat at 1 mg/kg, iv measured upto 24 hrs by LC-MS/MS analysis; type: ADME, organism-based; parameters: time < 24 hrs, dose 1 mg/kg, route iv; details: in vivo
[10] = AUC (0 to infinity) in Sprague-Dawley rat at 1 mg/kg, iv measured upto 24 hrs by LC-MS/MS analysis; type: ADME, organism-based; parameters: time < 24 hrs, dose 1 mg/kg, route iv; details: in vivo
[11] = Acute toxicity in 12 hr fasted male CD-1(ICR) mouse assessed as pathological damage in brain at 2 g/Kg, IG measured after 14 days by H and E staining based analysis; type: tissue-based; details: in vivo, po, 2000 mg/kg, 336 h, time 14 day
[12] = Acute toxicity in 12 hr fasted male CD-1(ICR) mouse assessed as behavioral abnormalities at 2 g/Kg, IG measured after 14 days; details: in vivo, po, 2000 mg/kg, 336 h, time 14 day
[13] = test system: Human immunodeficiency virus 1; assay: Antiviral activity against wild type HIV-1 IIIB infected in human MT4 cells assessed as protection against virus-induced cytopathic effect incubated for 5 days by MTT assay; type: functional, organism-based; details: Human immunodeficiency virus 1, IIIB, MT4, 120 h
[14] = target: Voltage-gated inwardly rectifying potassium channel KCNH2 (Homo sapiens, UniProt Q12809); assay: Inhibition of hERG expressed in CHO cells by Qpatch assay; type: toxicity, cell-based
Chain of Voltage-gated inwardly rectifying potassium channel KCNH2 (Q12809 whole entry): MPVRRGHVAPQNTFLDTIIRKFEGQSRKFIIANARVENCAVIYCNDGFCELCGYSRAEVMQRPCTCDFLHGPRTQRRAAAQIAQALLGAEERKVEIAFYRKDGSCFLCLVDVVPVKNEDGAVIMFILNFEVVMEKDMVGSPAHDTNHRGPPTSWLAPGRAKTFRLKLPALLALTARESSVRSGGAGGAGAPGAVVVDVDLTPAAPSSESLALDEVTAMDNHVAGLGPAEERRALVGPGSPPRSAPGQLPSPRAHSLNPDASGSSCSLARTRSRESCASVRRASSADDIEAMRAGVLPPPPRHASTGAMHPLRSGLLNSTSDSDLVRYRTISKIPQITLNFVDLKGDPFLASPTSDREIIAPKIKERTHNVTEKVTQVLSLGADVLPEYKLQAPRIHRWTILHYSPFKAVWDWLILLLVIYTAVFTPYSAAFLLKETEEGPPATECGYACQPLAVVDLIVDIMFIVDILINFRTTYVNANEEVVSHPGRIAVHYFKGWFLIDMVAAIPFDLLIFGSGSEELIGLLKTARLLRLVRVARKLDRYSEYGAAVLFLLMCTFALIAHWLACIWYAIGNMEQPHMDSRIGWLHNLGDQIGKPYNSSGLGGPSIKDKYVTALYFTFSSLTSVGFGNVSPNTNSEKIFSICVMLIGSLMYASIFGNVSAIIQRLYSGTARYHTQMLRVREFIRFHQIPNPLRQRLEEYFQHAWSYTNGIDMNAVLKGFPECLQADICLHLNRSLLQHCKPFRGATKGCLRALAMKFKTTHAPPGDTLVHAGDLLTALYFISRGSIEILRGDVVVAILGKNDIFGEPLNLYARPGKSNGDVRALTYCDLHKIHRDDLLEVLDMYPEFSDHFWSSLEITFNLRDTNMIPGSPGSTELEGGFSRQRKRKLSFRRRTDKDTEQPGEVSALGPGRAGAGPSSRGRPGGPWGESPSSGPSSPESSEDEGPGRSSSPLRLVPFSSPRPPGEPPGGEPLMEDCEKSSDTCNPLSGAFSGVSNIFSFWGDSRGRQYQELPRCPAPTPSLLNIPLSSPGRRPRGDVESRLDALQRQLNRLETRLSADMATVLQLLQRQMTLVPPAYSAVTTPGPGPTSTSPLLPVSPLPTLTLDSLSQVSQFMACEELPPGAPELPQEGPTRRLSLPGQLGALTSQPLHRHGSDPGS

[15] = Acute toxicity in 12 hr fasted male CD-1(ICR) mouse assessed as changes in body weight at 2 g/Kg, IG measured after 14 days; details: in vivo, po, 2000 mg/kg, 336 h, time 14 day
[16] = Acute toxicity in 12 hr fasted male CD-1(ICR) mouse assessed as pathological damage in liver at 2 g/Kg, IG measured after 14 days by H and E staining based analysis; type: tissue-based; details: in vivo, po, 2000 mg/kg, 336 h, time 14 day
[17] = Acute toxicity in 12 hr fasted female CD-1(ICR) mouse assessed as pathological damage in brain at 2 g/Kg, IG measured after 14 days by H and E staining based analysis; type: tissue-based; details: in vivo, po, 2000 mg/kg, 336 h, time 14 day
[18] = Oral bioavailability in Sprague-Dawley rat at 10 mg/kg measured upto 24 hrs by LC-MS/MS analysis; type: ADME, organism-based; details: in vivo
[19] = Acute toxicity in 12 hr fasted female CD-1(ICR) mouse assessed as pathological damage in kidney at 2 g/Kg, IG measured after 14 days by H and E staining based analysis; type: tissue-based; details: in vivo, po, 2000 mg/kg, 336 h, time 14 day
[20] = AUC (0 to infinity) in Sprague-Dawley rat at 10 mg/kg, po measured upto 24 hrs by LC-MS/MS analysis; type: ADME, organism-based; parameters: dose 10 mg/kg, time < 24 hrs, route po; details: in vivo
[21] = Resistant factor, ratio of EC50 for antiviral activity against HIV-1 IIIB harboring reverse transcriptase Y181C mutant to EC50 for antiviral activity against wild type HIV-1 IIIB; type: functional
[22] = Acute toxicity in 12 hr fasted male CD-1(ICR) mouse assessed as pathological damage in spleen at 2 g/Kg, IG measured after 14 days by H and E staining based analysis; type: tissue-based; details: in vivo, po, 2000 mg/kg, 336 h, time 14 day
[23] = Acute toxicity in 12 hr fasted female CD-1(ICR) mouse assessed as pathological damage in heart at 2 g/Kg, IG measured after 14 days by H and E staining based analysis; type: tissue-based; details: in vivo, po, 2000 mg/kg, 336 h, time 14 day
Cytochrome P450 3A4 [24] = target: T1, Cytochrome P450 3A4; assay: Inhibition of CYP3A4 in human liver microsomes using testosterone as substrate incubated for 15 to 45 mins in presence of NADPH; type: ADME, Microsome
[25] = Acute toxicity in 12 hr fasted female CD-1(ICR) mouse assessed as pathological damage in lung at 2 g/Kg, IG measured after 14 days by H and E staining based analysis; type: tissue-based; details: in vivo, po, 2000 mg/kg, 336 h, time 14 day
[26] = Cytotoxicity against human MT4 cells assessed as reduction in cell viability incubated for 5 days by MTT assay; type: toxicity, cell-based; details: time 5 day
[27] = Acute toxicity in 12 hr fasted male CD-1(ICR) mouse assessed as pathological damage in heart at 2 g/Kg, IG measured after 14 days by H and E staining based analysis; type: tissue-based; details: in vivo, po, 2000 mg/kg, 336 h, time 14 day
[28] = Half life in Sprague-Dawley rat at 10 mg/kg, po measured upto 24 hrs by LC-MS/MS analysis; type: ADME, organism-based; details: in vivo
[29] = Acute toxicity in 12 hr fasted female CD-1 (ICR) mouse assessed as death at 2 g/Kg, IG measured after 14 days; details: in vivo, po, 2000 mg/kg, 336 h, time 14 day
[30] = test system: Human immunodeficiency virus 1; assay: Antiviral activity against wild type HIV-1 IIIB harboring reverse transcriptase K103N mutant infected in human MT4 cells assessed as protection against virus-induced cytopathic effect incubated for 5 days by MTT assay; type: functional, organism-based; details: Human immunodeficiency virus 1, IIIB, MT4, 120 h
[31] = Acute toxicity in 12 hr fasted female CD-1(ICR) mouse assessed as pathological damage in liver at 2 g/Kg, IG measured after 14 days by H and E staining based analysis; type: tissue-based; details: in vivo, po, 2000 mg/kg, 336 h, time 14 day
[32] = MRT (0 to t) in Sprague-Dawley rat at 10 mg/kg, po measured upto 24 hrs by LC-MS/MS analysis; type: ADME, organism-based; details: in vivo
[33] = test system: Human immunodeficiency virus 1; assay: Antiviral activity against wild type HIV-1 IIIB harboring reverse transcriptase E138K mutant infected in human MT4 cells assessed as protection against virus-induced cytopathic effect incubated for 5 days by MTT assay; type: functional, organism-based; details: Human immunodeficiency virus 1, IIIB, MT4, 120 h
Cytochrome P450 2C19 = Cytochrome P450 2C19 (Homo sapiens, UniProt P33261); assay: Inhibition of CYP2C19 in human liver microsomes using S-mephenytoin as substrate incubated for 15 to 45 mins in presence of NADPH; type: ADME, Microsome
Chain of Cytochrome P450 2C19 (P33261 whole entry): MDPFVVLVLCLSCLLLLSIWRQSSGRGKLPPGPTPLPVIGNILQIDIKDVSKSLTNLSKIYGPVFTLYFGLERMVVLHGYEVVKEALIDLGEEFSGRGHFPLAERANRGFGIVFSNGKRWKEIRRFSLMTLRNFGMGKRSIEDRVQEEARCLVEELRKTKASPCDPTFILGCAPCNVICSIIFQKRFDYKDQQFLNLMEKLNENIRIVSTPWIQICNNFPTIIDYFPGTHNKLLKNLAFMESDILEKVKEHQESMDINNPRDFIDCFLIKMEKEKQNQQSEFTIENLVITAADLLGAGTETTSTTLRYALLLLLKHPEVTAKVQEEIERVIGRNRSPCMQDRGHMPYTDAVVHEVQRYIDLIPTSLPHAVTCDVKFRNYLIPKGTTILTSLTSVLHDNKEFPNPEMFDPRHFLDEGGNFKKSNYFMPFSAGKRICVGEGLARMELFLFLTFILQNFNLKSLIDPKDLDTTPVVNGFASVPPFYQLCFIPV

[34] = Cmax in Sprague-Dawley rat at 1 mg/kg, iv measured upto 24 hrs by LC-MS/MS analysis; type: ADME, organism-based; parameters: time < 24 hrs, dose 1 mg/kg, route iv; details: in vivo
[35] = Acute toxicity in 12 hr fasted male CD-1(ICR) mouse assessed as pathological damage in kidney at 2 g/Kg, IG measured after 14 days by H and E staining based analysis; type: tissue-based; details: in vivo, po, 2000 mg/kg, 336 h, time 14 day

CONC(=O)c1cnc(Nc2ccc(C#N)cc2)nc1Oc1c(C)cc(-c2ccc(C#N)cc2)cc1C
Activity [1]: Non-Toxic | Activity [2]: Non-Toxic | EC50 [3]: 29 nM | IC50 (Cytochrome P450 2D6): > 50000 nM | IC50 (Cytochrome P450 3A4 [4]): > 50000 nM | Ratio EC50 [5]: 5.7 | Ratio EC50 [6]: 23 | Cmax [7]: 616 ng/mL | Tmax [8]: 4.98 min | AUC(0-t) at 24 h [9]: 1160 ng·h/mL | AUC(0-inf) [10]: 1170 ng·h/mL | Activity [11]: Non-Toxic | Activity [12]: Non-Toxic | EC50 [13]: 2 nM | IC50 [14]: > 40000 nM | Activity [15]: Non-Toxic | Activity [16]: Non-Toxic | Activity [17]: Non-Toxic | bioavailability [18]: 31.2% | Activity [19]: Non-Toxic | AUC(0-inf) [20]: 3650 ng·h/mL | Ratio EC50 [21]: 13 | Activity [22]: Non-Toxic | Activity [23]: Non-Toxic | IC50 (Cytochrome P450 3A4 [24]): > 50000 nM | Activity [25]: Non-Toxic | CC50 at 120 h [26]: > 40800 nM | Activity [27]: Non-Toxic | half-life [28]: 5.18 h | Activity [29]: Non-Toxic | EC50 [30]: 8 nM | Activity [31]: Non-Toxic | MRT last at 24 h [32]: 4.54 h | EC50 [33]: 6 nM | IC50 (Cytochrome P450 2C19): 23600 nM | Cmax [34]: 431 ng/mL | Activity [35]: Non-Toxic
